Data taken from paper PMC12176268, “Structural Features and Photophysical and Antiproliferative Properties of Me2N‑pbt-Cycloplatinated Complexes with Picolinate Ligands” (Inorganic Chemistry, 2025).
Read-outs that look alike come from different tables or passages of the source.

Legend:
A549 = experiment: MTT cell viability assay on A549 cells, dark and 450 nm irradiation; format: cell-based, human; settings: for EC50: MTT
Description: (§1) (C∧N) cyclometalated Pt(II) complexes have been previously reported to have strong antiproliferative activities when associated with phenanthroline-based, diphosphine, acyclic diamino carbenes, or picolinate ligands. In particular, (Me2N-pbt)-cyclometalated platinum complexes have been previously reported by some of us to have antiproliferative properties in the micromolar range on a panel of cancer cell lines, prompting us to investigate the anticancer properties of complexes 1–4 in dark conditions and, considering their high quantum yield (ϕΔ) of ^1O2 generation, under irradiation conditions. Due to the poor solubility of the complexes in an aqueous environment, complexes 1–4 were first dissolved in DMSO and diluted in the culture media to reach a final concentration of 1% DMSO when incubated with the cells. All complexes were screened against the so-called “triple-negative” breast cancer cell line MDA-MB-231, lung adenocarcinoma cell line A549, and the noncancerous breast cell line MCF-10A for 72 h in dark conditions and under 5 min irradiation at 450 nm (see Experimental Section for details). The irradiation time was kept short to prevent light-induced toxicity of the energetic wavelength observed at longer irradiation times (data not shown). The measurement of the effective concentration at 50% (EC50) was carried out using the classical MTT assay, and the data are provided in Table .
(§2) In dark conditions, we could notice a strong influence of substituents on the picolinate ligands. […] This can be correlated with its poor stability in the culture medium mentioned above, which might reduce its cellular uptake. […] However, in dark conditions, no particular selectivity for cancer cells could be observed with similar activity measured against the noncancerous cell line MCF-10A. For the “light” experiments, the cells were preincubated with the complexes for 4 h in the dark, irradiated at 450 nm for 5 min, and then put back in the dark until 72 h. The photoactivity index (PI) values, defined as the ratio between the EC50 in dark conditions and the EC50 after irradiation for each cell line, are shown in Figure .
(§3) The human lung adenocarcinoma cell line A549 and human breast cancer cell line MDA-MB-231 were cultivated in DMEM (Dulbecco’s modified Eagle’s medium) containing GlutaMax I supplemented with 10% FBS at 37 °C in a humidified atmosphere and 5% CO2. The noncancerous cell line MCF-10A was maintained in DMEM:F12 (1:1) cell culture media, 5% heat-inactivated horse serum, supplemented with HEPES (20 mM), L-glutamine (2 mM), epidermal growth factor (20 ng/mL), hydrocortisone (500 ng/mL), cholera toxin (100 ng/mL), and insulin (10 μg/mL). Cell viability was evaluated by using a colorimetric method based on the tetrazolium salt MTT [3-(4,5-dimethylthiazol-2-yl)-2,5-diphenyltetrazolium bromide], which is reduced by viable cells to yield purple formazan crystals. Cells were seeded in 96-well plates at a density of 40000 cells/mL (100 μL per well). Stock solutions were prepared in DMSO for complexes 1–4 and in water for cisplatin. […] For dark experiments, after overnight attachment, a dilution series of the compounds was added to the medium, and the cells were incubated for a further 72 h. For the irradiated experiments, after overnight attachment, a dilution series of the compounds was added to the medium, and the cells were preincubated for 4 h. The cells were then irradiated at 450 nm for 5 min with a Kessil Lamp (power: 3 mW/cm^2, 1.13 × 10^–8 Einstein/s at 20 cm distance between the light source and 96-well plate) and the incubation was continued until 72 h. After 72 h, the medium was removed and the cells were incubated with MTT solution in PBS (10 μL of 5 mg/mL) for 2–3 h. The formed purple formazan crystals were dissolved in 100 μL of DMSO by thorough shaking, and the absorbance at 580 nm was read using a microplate reader (FLUOstar OPTIMA, BMG Labtech). Each test was performed with at least 3 replicates and repeated at least 3 times. […]

[1] = biological target: bovine serum albumin (BSA) (Bos taurus, UniProt P02769); experiment: Quenching of intrinsic BSA fluorescence (Stern–Volmer, binding constant); settings: 5 μM BSA, 20 mM PB pH 7.4, 1% DMSO, 1 h room temperature
Chain of bovine serum albumin (BSA) (P02769 25-607): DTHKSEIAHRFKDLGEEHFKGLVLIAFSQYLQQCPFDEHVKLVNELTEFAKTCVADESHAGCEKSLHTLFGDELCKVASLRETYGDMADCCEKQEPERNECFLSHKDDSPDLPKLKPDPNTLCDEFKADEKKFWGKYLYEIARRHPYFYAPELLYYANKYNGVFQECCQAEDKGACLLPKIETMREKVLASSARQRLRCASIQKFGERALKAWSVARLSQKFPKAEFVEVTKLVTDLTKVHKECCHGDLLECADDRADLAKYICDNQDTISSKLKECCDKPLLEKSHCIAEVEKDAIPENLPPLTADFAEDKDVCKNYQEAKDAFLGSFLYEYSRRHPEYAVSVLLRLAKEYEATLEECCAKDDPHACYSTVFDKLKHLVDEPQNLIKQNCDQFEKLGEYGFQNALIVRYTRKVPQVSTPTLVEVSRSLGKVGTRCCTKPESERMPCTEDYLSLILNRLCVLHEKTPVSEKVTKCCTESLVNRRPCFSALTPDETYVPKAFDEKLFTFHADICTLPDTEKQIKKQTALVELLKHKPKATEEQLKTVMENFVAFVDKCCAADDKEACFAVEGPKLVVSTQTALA
Description: In order to further characterize the interactions between complex 3 and BSA, we monitored the evolution of the intrinsic emission band of BSA upon excitation at 290 nm, attributed to the Trp213 residue located in the hydrophobic domain IIA, in the presence of an increasing concentration of complex 3. Briefly, the emission spectra of solutions containing 5 μM BSA dissolved in 20 mM PB buffer (pH 7.4) containing 1% DMSO incubated for 1 h at room temperature with concentrations of 3 ranging from 1 to 100 μM (Figure S33A) were recorded. […] The kinetics of the intermolecular quenching processes follow the Stern–Volmer eq : 2 F0/F=1+Ksv[3] where F 0 is the fluorescence intensity of pure BSA, F is the fluorescence intensity after the addition of 3, and K SV is the Stern–Volmer dynamic quenching efficiency (Figure S33B). K SV (eq ) can be expressed as the product of the quenching rate k q and the average lifetime of the fluorophore τ0 in the excited state, which is typically 10^–8 s. 3 KSV=kqτ0
The linear Stern–Volmer plot can be indicative of either a dynamic or static quenching mechanism.
It is further possible to determine the number of binding sites (n) and the binding constant (Kb) by plotting log((F0-F)/F) vs log([3]) (Figure S33C) according to eq . 4 log(F0−F/F)=logKb+nlog[3] […]

MDA-MB-231 = experiment: MTT cell viability assay on MDA-MB-231 cells, dark and 450 nm irradiation; format: cell-based, human; settings: for EC50: MTT
Description: as §1, §2, §3

[Pt(Me2N-pbt)(3-OH-pic-κN,O)] [Complex 3]
photoactivity index (PI), EC50 dark / EC50 after irradiation, A549 (A549; 5 min irradiation at 450 nm): 5.6
EC50 (A549; 4 h preincubation, 5 min irradiation at 450 nm, then dark until 72 h, read-out: EC50 A549 light): 1100 ± 80 nM
EC50 (A549; 72 h incubation at 37 °C, dark, read-out: EC50 A549 dark): 6100 ± 200 nM
reduction of the antiproliferative activity relative to 1, A549 (A549; dark conditions): ~5 times
number of binding sites (n) on BSA [1]: 0.9 ± 0.07
quenching rate kq of BSA fluorescence ([1]; λexc 290 nm, τ0 10^–8 s): 2.21 ± 0.12 × 10^12 M^–1.s^–1
EC50 (MDA-MB-231; 4 h preincubation, 5 min irradiation at 450 nm, then dark until 72 h, read-out: EC50 MDA-MB-231 light): 220 ± 30 nM
EC50 (MDA-MB-231; 72 h incubation at 37 °C, dark, read-out: EC50 MDA-MB-231 dark): 2600 ± 800 nM
reduction of the antiproliferative activity relative to 1, MDA-MB-231 (MDA-MB-231; dark conditions): ~5 times
lower activity toward MDA-MB-231 cells compared to the noncancerous cells (MDA-MB-231; dark conditions, versus MCF-10A): 2 fold
activity on MDA-MB-231 compared to the noncancerous cell line (MDA-MB-231; upon irradiation (450 nm, 5 min), versus MCF-10A): twice as active
